Experimental data as given in article PMC5290327, “SC83288 is a clinical development candidate for the treatment of severe malaria” (Nature Communications, 2017).

Experiments:
Assay in all cases: KINOMEscan
Assay type in all cases: binding
Settings in all cases: read-out: Remaining enzyme activity
ABL1(T315I) = molecular target: T1, ABL1(T315I) (Homo sapiens, UniProt P00519, T315I)
T1 construct: purchased Ambit (DiscoverX) KINOMEscan; Cerep
Procedure, shortened: (§1)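 Each kinase, tagged with DNA, is partitioned between test compound and an immobilized active-site ligand; qPCR of the eluate reports the bound fraction. SC81458 dosed once, 10 μM final concentration.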

ABL2 = molecular target: T2, ABL2 (Homo sapiens, UniProt P42684)
T2 construct: purchased Ambit (DiscoverX) KINOMEscan; Cerep
Procedure, shortened: as §1

AXL = molecular target: T3, AXL (Homo sapiens, UniProt P30530)
T3 construct: purchased Ambit (DiscoverX) KINOMEscan; Cerep
Procedure, shortened: as §1

BMPR1b = molecular target: T4, BMPR1b (Homo sapiens, UniProt O00238)
T4 construct: purchased Ambit (DiscoverX) KINOMEscan; Cerep
Procedure, shortened: as §1

CAMK1 = molecular target: T5, CAMK1 (Homo sapiens, UniProt Q14012)
T5 construct: purchased Ambit (DiscoverX) KINOMEscan; Cerep
Procedure, shortened: as §1

CAMK1g = molecular target: T6, CAMK1g (Homo sapiens, UniProt Q96NX5)
T6 construct: purchased Ambit (DiscoverX) KINOMEscan; Cerep
Procedure, shortened: as §1

CAMK2g = molecular target: T7, CAMK2g (Homo sapiens, UniProt Q13555)
T7 construct: purchased Ambit (DiscoverX) KINOMEscan; Cerep
Procedure, shortened: as §1

CDKL5 = molecular target: T8, CDKL5 (Homo sapiens, UniProt O76039)
T8 construct: purchased Ambit (DiscoverX) KINOMEscan; Cerep
Procedure, shortened: as §1

CSNK1g2 = molecular target: T9, CSNK1g2 (Homo sapiens, UniProt P78368)
T9 construct: purchased Ambit (DiscoverX) KINOMEscan; Cerep
Procedure, shortened: as §1

DAPK2 = molecular target: T10, DAPK2 (Homo sapiens, UniProt Q9UIK4)
T10 construct: purchased Ambit (DiscoverX) KINOMEscan; Cerep
Procedure, shortened: as §1

DCAMKL1 = molecular target: T11, DCAMKL1 (Homo sapiens, UniProt O15075)
T11 construct: purchased Ambit (DiscoverX) KINOMEscan; Cerep
Procedure, shortened: as §1

DMPK = molecular target: T12, DMPK (Homo sapiens, UniProt Q09013)
T12 construct: purchased Ambit (DiscoverX) KINOMEscan; Cerep
Procedure, shortened: as §1

FLT1 = molecular target: T13, FLT1 (Homo sapiens, UniProt P17948)
T13 construct: purchased Ambit (DiscoverX) KINOMEscan; Cerep
Procedure, shortened: as §1

GRK4 = molecular target: T14, GRK4 (Homo sapiens, UniProt P32298)
T14 construct: purchased Ambit (DiscoverX) KINOMEscan; Cerep
Procedure, shortened: as §1

HIPK2 = molecular target: T15, HIPK2 (Homo sapiens, UniProt Q9H2X6)
T15 construct: purchased Ambit (DiscoverX) KINOMEscan; Cerep
Procedure, shortened: as §1

JNK2 = molecular target: T16, JNK2 (Homo sapiens, UniProt P45984)
T16 construct: purchased Ambit (DiscoverX) KINOMEscan; Cerep
Procedure, shortened: as §1

LATS2 = molecular target: T17, LATS2 (Homo sapiens, UniProt Q9NRM7)
T17 construct: purchased Ambit (DiscoverX) KINOMEscan; Cerep
Procedure, shortened: as §1

MAP3K15 = molecular target: T18, MAP3K15 (Homo sapiens, UniProt Q6ZN16)
T18 construct: purchased Ambit (DiscoverX) KINOMEscan; Cerep
Procedure, shortened: as §1

MAP4K3 = molecular target: T19, MAP4K3 (Homo sapiens, UniProt Q8IVH8)
T19 construct: purchased Ambit (DiscoverX) KINOMEscan; Cerep
Procedure, shortened: as §1

MARK2 = molecular target: T20, MARK2 (Homo sapiens, UniProt Q7KZI7)
T20 construct: purchased Ambit (DiscoverX) KINOMEscan; Cerep
Procedure, shortened: as §1

MLK1 = molecular target: T21, MLK1 (Homo sapiens, UniProt P80192)
T21 construct: purchased Ambit (DiscoverX) KINOMEscan; Cerep
Procedure, shortened: as §1

PIK3CA(E545A) = molecular target: T22, PIK3CA(E545A) (Homo sapiens, UniProt P42336, E545A)
T22 construct: purchased Ambit (DiscoverX) KINOMEscan; Cerep
Procedure, shortened: as §1

PIK3CA(H1047L) = molecular target: T23, PIK3CA(H1047L) (Homo sapiens, UniProt P42336, H1047L)
T23 construct: purchased Ambit (DiscoverX) KINOMEscan; Cerep
Procedure, shortened: as §1

PRKD3 = molecular target: T24, PRKD3 (Homo sapiens, UniProt O94806)
T24 construct: purchased Ambit (DiscoverX) KINOMEscan; Cerep
Procedure, shortened: as §1

PRKG2 = molecular target: T25, PRKG2 (Homo sapiens, UniProt Q13237)
T25 construct: purchased Ambit (DiscoverX) KINOMEscan; Cerep
Procedure, shortened: as §1

RET = molecular target: T26, RET (Homo sapiens, UniProt P07949)
T26 construct: purchased Ambit (DiscoverX) KINOMEscan; Cerep
Procedure, shortened: as §1

[1] = molecular target: T27, RPS6KA3(Kin.Dom.1-N-term) (Homo sapiens, UniProt P51812)
T27 construct: RPS6KA3(Kin.Dom.1-N-term); purchased Ambit (DiscoverX) KINOMEscan; Cerep
Procedure, shortened: as §1

SBK1 = molecular target: T28, SBK1 (Homo sapiens, UniProt Q52WX2)
T28 construct: purchased Ambit (DiscoverX) KINOMEscan; Cerep
Procedure, shortened: as §1

SLK = molecular target: T29, SLK (Homo sapiens, UniProt Q9H2G2)
T29 construct: purchased Ambit (DiscoverX) KINOMEscan; Cerep
Procedure, shortened: as §1

SRPK3 = molecular target: T30, SRPK3 (Homo sapiens, UniProt Q9UPE1)
T30 construct: purchased Ambit (DiscoverX) KINOMEscan; Cerep
Procedure, shortened: as §1

TNIK = molecular target: T31, TNIK (Homo sapiens, UniProt Q9UKE5)
T31 construct: purchased Ambit (DiscoverX) KINOMEscan; Cerep
Procedure, shortened: as §1

TRKa = molecular target: T32, TRKa (Homo sapiens, UniProt P04629)
T32 construct: purchased Ambit (DiscoverX) KINOMEscan; Cerep
Procedure, shortened: as §1

p38-beta = molecular target: T33, p38-beta (Homo sapiens, UniProt Q15759)
T33 construct: purchased Ambit (DiscoverX) KINOMEscan; Cerep
Procedure, shortened: as §1

T13 sequence (P17948 27-1338): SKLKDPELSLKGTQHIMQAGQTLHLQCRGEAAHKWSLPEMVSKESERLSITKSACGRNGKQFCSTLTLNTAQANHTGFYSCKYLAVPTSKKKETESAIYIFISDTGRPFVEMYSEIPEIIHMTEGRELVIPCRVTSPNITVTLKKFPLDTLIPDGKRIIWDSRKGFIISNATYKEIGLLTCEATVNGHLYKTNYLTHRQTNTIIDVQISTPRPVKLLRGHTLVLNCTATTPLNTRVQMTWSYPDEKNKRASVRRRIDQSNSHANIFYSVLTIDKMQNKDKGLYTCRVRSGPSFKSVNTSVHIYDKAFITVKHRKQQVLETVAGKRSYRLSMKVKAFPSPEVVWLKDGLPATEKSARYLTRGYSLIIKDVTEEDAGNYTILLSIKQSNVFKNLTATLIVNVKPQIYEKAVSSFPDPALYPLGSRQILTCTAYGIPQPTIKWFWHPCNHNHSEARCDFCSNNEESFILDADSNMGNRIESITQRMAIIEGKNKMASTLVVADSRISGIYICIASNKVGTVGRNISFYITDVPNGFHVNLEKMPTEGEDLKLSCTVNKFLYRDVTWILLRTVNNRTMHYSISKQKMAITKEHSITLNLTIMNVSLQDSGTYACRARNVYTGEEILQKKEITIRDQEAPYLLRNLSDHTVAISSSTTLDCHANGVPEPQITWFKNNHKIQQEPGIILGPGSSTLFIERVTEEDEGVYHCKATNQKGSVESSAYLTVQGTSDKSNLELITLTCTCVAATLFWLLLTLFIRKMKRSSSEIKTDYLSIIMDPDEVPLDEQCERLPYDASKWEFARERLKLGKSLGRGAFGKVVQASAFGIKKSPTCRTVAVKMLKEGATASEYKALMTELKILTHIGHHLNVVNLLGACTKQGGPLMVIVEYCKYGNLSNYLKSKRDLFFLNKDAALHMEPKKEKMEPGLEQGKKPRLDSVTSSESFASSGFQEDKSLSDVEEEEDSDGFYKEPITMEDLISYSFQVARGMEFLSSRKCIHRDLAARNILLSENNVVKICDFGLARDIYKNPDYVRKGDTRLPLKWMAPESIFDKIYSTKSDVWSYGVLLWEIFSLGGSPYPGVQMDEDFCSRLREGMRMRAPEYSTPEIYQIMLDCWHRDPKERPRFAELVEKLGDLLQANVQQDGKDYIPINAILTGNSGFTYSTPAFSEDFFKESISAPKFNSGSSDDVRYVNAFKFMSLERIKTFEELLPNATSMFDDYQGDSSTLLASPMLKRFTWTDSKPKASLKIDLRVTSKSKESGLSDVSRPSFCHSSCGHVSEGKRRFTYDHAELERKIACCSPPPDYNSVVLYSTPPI
T8 sequence (O76039 whole entry): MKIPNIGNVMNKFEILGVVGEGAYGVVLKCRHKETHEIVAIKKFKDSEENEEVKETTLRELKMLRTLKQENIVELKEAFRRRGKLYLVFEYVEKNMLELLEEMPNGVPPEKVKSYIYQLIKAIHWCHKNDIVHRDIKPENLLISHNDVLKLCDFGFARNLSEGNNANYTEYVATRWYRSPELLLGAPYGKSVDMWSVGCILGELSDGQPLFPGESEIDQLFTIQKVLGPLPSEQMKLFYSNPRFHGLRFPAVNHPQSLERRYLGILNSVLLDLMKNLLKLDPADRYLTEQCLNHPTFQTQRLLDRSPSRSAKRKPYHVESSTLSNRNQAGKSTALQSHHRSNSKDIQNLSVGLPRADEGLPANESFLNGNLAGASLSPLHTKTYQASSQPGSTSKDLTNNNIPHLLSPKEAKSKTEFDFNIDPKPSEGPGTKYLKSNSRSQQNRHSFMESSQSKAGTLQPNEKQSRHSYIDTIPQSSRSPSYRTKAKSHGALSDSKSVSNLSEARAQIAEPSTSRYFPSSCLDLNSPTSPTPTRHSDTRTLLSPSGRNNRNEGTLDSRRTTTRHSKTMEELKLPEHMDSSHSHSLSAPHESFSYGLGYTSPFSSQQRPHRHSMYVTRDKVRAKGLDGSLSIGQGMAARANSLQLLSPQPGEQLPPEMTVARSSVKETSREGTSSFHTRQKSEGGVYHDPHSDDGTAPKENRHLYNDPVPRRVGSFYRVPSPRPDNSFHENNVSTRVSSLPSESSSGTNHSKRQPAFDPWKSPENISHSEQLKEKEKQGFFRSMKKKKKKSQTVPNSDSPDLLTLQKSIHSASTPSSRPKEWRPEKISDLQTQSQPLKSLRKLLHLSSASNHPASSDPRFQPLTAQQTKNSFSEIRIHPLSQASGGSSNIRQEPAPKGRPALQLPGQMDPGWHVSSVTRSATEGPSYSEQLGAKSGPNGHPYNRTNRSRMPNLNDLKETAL
T14 sequence (P32298 whole entry): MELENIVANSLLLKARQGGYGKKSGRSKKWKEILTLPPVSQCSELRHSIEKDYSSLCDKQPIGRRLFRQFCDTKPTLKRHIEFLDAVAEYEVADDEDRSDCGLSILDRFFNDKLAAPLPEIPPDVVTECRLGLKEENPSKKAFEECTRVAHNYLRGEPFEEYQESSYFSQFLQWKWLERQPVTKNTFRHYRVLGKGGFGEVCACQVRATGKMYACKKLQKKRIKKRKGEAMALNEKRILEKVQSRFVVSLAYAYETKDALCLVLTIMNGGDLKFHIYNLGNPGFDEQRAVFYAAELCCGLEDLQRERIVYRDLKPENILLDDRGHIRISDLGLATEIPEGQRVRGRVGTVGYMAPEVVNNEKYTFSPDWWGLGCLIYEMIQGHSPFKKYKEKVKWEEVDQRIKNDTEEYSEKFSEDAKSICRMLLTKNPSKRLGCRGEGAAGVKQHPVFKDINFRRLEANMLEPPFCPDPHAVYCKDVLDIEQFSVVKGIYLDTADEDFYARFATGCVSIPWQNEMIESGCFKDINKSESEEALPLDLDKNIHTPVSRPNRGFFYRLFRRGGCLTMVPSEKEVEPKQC
T3 sequence (P30530 26-894): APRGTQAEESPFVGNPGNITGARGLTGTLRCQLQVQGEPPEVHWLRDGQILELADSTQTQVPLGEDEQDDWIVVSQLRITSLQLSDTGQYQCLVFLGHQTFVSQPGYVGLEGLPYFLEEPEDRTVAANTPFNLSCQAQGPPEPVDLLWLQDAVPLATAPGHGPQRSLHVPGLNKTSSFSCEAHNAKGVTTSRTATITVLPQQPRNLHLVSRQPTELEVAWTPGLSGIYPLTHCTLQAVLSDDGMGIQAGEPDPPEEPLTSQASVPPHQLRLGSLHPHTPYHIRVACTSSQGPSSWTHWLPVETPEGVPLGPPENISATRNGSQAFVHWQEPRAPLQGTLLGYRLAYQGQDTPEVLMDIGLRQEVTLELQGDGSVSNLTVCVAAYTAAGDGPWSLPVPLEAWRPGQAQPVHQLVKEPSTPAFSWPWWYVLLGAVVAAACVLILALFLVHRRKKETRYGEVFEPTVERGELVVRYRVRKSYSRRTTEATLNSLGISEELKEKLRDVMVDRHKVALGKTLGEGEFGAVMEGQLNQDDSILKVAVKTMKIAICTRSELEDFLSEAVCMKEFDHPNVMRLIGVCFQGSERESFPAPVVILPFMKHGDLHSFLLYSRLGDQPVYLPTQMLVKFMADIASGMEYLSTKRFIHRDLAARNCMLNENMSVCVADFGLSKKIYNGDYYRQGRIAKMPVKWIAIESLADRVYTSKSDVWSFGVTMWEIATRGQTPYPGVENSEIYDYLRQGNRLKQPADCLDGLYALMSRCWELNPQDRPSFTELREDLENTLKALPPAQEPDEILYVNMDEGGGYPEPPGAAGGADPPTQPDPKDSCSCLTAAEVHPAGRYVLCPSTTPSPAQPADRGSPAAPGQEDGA
T10 sequence (Q9UIK4 whole entry): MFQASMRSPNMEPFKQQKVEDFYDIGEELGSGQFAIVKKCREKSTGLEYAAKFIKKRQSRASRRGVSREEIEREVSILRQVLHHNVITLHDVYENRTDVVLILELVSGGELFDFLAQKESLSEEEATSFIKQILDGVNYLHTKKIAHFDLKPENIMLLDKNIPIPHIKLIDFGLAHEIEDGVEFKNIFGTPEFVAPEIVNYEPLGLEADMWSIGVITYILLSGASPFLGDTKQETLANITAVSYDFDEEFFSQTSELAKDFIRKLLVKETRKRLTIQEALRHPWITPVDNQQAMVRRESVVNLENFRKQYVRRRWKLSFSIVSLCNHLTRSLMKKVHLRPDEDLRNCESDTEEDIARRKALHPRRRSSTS
T7 sequence (Q13555 whole entry): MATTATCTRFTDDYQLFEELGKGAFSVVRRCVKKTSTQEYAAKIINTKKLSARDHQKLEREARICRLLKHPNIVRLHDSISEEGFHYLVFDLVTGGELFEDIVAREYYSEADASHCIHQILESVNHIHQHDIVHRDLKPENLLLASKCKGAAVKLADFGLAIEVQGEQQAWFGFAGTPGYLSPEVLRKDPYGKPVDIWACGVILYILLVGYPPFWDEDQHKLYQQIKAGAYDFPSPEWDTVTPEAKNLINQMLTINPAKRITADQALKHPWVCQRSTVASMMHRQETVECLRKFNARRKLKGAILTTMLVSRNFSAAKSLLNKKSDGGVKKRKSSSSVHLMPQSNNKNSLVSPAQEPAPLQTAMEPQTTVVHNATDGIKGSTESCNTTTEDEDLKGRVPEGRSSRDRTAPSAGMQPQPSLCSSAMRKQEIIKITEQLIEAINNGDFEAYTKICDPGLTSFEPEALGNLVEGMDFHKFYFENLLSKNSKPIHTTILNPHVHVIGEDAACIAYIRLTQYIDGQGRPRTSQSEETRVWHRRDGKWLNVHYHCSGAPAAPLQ
T33 sequence (Q15759 whole entry): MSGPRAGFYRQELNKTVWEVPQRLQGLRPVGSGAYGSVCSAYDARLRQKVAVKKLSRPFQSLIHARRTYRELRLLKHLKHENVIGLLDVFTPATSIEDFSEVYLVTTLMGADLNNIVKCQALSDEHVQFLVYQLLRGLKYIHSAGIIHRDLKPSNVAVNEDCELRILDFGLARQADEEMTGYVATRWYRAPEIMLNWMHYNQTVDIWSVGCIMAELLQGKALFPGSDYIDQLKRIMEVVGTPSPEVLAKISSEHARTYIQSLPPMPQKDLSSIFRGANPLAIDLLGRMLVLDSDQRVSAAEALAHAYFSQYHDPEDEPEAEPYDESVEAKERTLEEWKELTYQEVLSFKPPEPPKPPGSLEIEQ

CCCCN1CCN(C(=N)c2cccc(NC(=O)Nc3ccc(S(=O)(=O)NCc4ccc(S(N)(=O)=O)cc4)cc3)c2)CC1 [SC81458, 4-(3-(3-((4-butylpiperazin-1-yl)(imino)methyl)phenyl)ureido)-N-(4-sulfamoylbenzyl) benzenesulfonamide]
remaining binding at 10 µM (ABL1(T315I)): 100%
remaining binding at 10 µM (ABL2): 77%
remaining binding at 10 µM (AXL): 100%
remaining binding at 10 µM (BMPR1b): 85%
remaining binding at 10 µM (CAMK1): 82%
remaining binding at 10 µM (CAMK1g): 98%
remaining binding at 10 µM (CAMK2g): 100%
remaining binding at 10 µM (CDKL5): 100%
remaining binding at 10 µM (CSNK1g2): 100%
remaining binding at 10 µM (DAPK2): 100%
remaining binding at 10 µM (DCAMKL1): 100%
remaining binding at 10 µM (DMPK): 76%
remaining binding at 10 µM (FLT1): 91%
remaining binding at 10 µM (GRK4): 92%
remaining binding at 10 µM (HIPK2): 100%
remaining binding at 10 µM (JNK2): 97%
remaining binding at 10 µM (LATS2): 100%
remaining binding at 10 µM (MAP3K15): 100%
remaining binding at 10 µM (MAP4K3): 95%
remaining binding at 10 µM (MARK2): 100%
remaining binding at 10 µM (MLK1): 64%
remaining binding at 10 µM (PIK3CA(E545A)): 100%
remaining binding at 10 µM (PIK3CA(H1047L)): 100%
remaining binding at 10 µM (PRKD3): 100%
remaining binding at 10 µM (PRKG2): 80%
remaining binding at 10 µM (RET): 89%
remaining binding at 10 µM [1]: 100%
remaining binding at 10 µM (SBK1): 72%
remaining binding at 10 µM (SLK): 100%
remaining binding at 10 µM (SRPK3): 83%
remaining binding at 10 µM (TNIK): 100%
remaining binding at 10 µM (TRKa): 100%
remaining binding at 10 µM (p38-beta): 100%
